Assay results reported in ChEMBL document CHEMBL2040800 (J Med Chem, 2012).
≈ marks a conversion by molar mass, not a printed value. Calls of active or inactive are those of the source. The rule behind the calls is not given here.

Tests used:
[1] = AUC (0 to infinity) in Sprague-Dawley rat at […], iv; type: ADME, organism-based; parameters: time infinity, dose 4.7 mg/kg, route intravenous; details: plasma
[2] = Total blood clearance in Sprague-Dawley rat at […], iv; type: ADME, organism-based; parameters: dose 4.7 mg/kg, route intravenous; details: whole blood
[3] = Apparent terminal half life in Sprague-Dawley rat at 22.3 mg/kg, po; type: ADME, organism-based; parameters: dose 22.3 mg/kg, route oral; details: in vivo, read-out: betat1/2(app) (converted)
Plasmodium berghei [4] = experiment: Antimalarial activity against Plasmodium berghei ANKA expressing GFP infected in Sprague-Dawley rat assessed as reduction in parasitemia at 50 mg/kg, po administered as 4 doses measured on day 4 post-infection by flow cytometry; type: functional; parameters: scale not given: the % may be the effect or the level left
[5] = Cmax in Sprague-Dawley rat at 5 mg/kg, po; type: ADME, organism-based; parameters: dose 5 mg/kg, route oral; details: in vivo
Plasmodium berghei [6] = experiment: Antimalarial activity against Plasmodium berghei ANKA expressing GFP infected in Sprague-Dawley rat assessed as host survival at 3 mg/kg, po administered as single dose measured 6 days post-infection; type: functional, organism-based; parameters: dose 3 mg/kg
[7] = Cmax in Sprague-Dawley rat at 22.3 mg/kg, po; type: ADME, organism-based; parameters: dose 22.3 mg/kg, route oral; details: in vivo
[8] = Oral bioavailability in Sprague-Dawley rat at 5 mg/kg; type: ADME, organism-based; details: in vivo
[9] = Tmax in Sprague-Dawley rat at 5 mg/kg, po; type: ADME, organism-based; parameters: dose 5 mg/kg, route oral; details: in vivo
[10] = Total plasma clearance in Sprague-Dawley rat at […], iv; type: ADME, organism-based; parameters: dose 4.7 mg/kg, route intravenous
[11] = Oral bioavailability in Sprague-Dawley rat at 22.3 mg/kg; type: ADME, organism-based; details: in vivo
Plasmodium berghei [12] = experiment: Antimalarial activity against Plasmodium berghei ANKA expressing GFP infected in Sprague-Dawley rat assessed as total cure from parasite at 50 mg/kg, po administered as 4 doses measured on day 30 post-infection by flow cytometry; type: functional, organism-based; parameters: dose 50 mg/kg
[13] = AUC (0 to infinity) in Sprague-Dawley rat at 22.3 mg/kg, po; type: ADME, organism-based; parameters: time infinity, dose 22.3 mg/kg, route oral; details: plasma
[14] = Tmax in Sprague-Dawley rat at 22.3 mg/kg, po; type: ADME, organism-based; parameters: dose 22.3 mg/kg, route oral; details: in vivo
Plasmodium berghei [15] = experiment: Antimalarial activity against Plasmodium berghei ANKA expressing GFP infected in Sprague-Dawley rat assessed as mean survival days of host at 100 mg/kg, po administered as single dose; type: functional
Plasmodium berghei [16] = experiment: Antimalarial activity against Plasmodium berghei ANKA expressing GFP infected in Sprague-Dawley rat assessed as reduction in parasitemia at 10 mg/kg, po administered as single dose measured on day 3 post-infection by flow cytometry; type: functional; parameters: scale not given: the % may be the effect or the level left
Plasmodium berghei [17] = experiment: Antimalarial activity against Plasmodium berghei ANKA expressing GFP infected in Sprague-Dawley rat assessed as reduction in parasitemia at 100 mg/kg, po administered as single dose measured on day 3 post-infection by flow cytometry; type: functional; parameters: scale not given: the % may be the effect or the level left
[18] = Half life in human liver microsomes at 1 uM; type: ADME, Microsome
Plasmodium berghei [19] = experiment: Antimalarial activity against Plasmodium berghei ANKA expressing GFP infected in po dosed Sprague-Dawley rat assessed as reduction in parasitemia administered as single dose measured on day 3 post-infection by flow cytometry; type: functional; details: 72 h
[20] = Intrinsic clearance in human liver microsomes at 1 uM up to 60 mins; type: ADME, Microsome; details: read-out: CLH
Plasmodium berghei [21] = experiment: Antimalarial activity against Plasmodium berghei ANKA expressing GFP infected in Sprague-Dawley rat assessed as mean survival days of host at 3 mg/kg, po administered as single dose; type: functional
Plasmodium berghei [22] = experiment: Antimalarial activity against Plasmodium berghei ANKA expressing GFP infected in Sprague-Dawley rat assessed as reduction in parasitemia at 3 mg/kg, po administered as single dose measured on day 3 post-infection by flow cytometry; type: functional; parameters: scale not given: the % may be the effect or the level left
Plasmodium berghei [23] = experiment: Antimalarial activity against Plasmodium berghei ANKA expressing GFP infected in Sprague-Dawley rat assessed as mean survival days of host at 30 mg/kg, po administered as single dose; type: functional
[24] = Partition coefficient, log D of the compound at pH 7.4 by phase gradient HPLC analysis; type: physicochemical; details: octanol/water
Plasmodium berghei [25] = experiment: Antimalarial activity against Plasmodium berghei ANKA expressing GFP infected in Sprague-Dawley rat assessed as mean survival days of host at 10 mg/kg, po administered as single dose; type: functional
[26] = Apparent terminal half life in Sprague-Dawley rat at […], iv; type: ADME, organism-based; parameters: dose 4.7 mg/kg, route intravenous; details: in vivo, read-out: betat1/2(app) (converted)
Plasmodium berghei [27] = experiment: Antimalarial activity against Plasmodium berghei ANKA expressing GFP infected in Sprague-Dawley rat assessed as mean survival days of host at 50 mg/kg, po administered as 4 doses; type: functional
Plasmodium berghei [28] = experiment: Antimalarial activity against Plasmodium berghei ANKA expressing GFP infected in Sprague-Dawley rat assessed as reduction in parasitemia at 30 mg/kg, po administered as single dose measured on day 3 post-infection by flow cytometry; type: functional; parameters: scale not given: the % may be the effect or the level left
[29] = Volume of distribution at steady state in Sprague-Dawley rat at […], iv; type: ADME, organism-based; parameters: dose 4.7 mg/kg, route intravenous; details: in vivo, read-out: Vdss
[30] = AUC (0 to infinity) in Sprague-Dawley rat at 5 mg/kg, po; type: ADME, organism-based; parameters: time infinity, dose 5 mg/kg, route oral; details: plasma
[31] = Apparent terminal half life in Sprague-Dawley rat at 5 mg/kg, po; type: ADME, organism-based; parameters: dose 5 mg/kg, route oral; details: in vivo, read-out: betat1/2(app) (converted)
[32] = Kinetic solubility of the compound in phosphate buffer after 30 mins by nephelometry at pH 6.5; type: physicochemical; details: read-out: Kinetic_solubility
[33] = Plasma protein binding in human by reverse phase gradient HPLC analysis; type: ADME, cell-free; details: read-out: PPB (converted)
Plasmodium falciparum [34] = experiment: Antimalarial activity against chloroquine-resistant Plasmodium falciparum K1 after 24 hrs by hypoxanthine incorporation assay; type: functional, organism-based; details: K1, 24 h
Plasmodium falciparum [35] = experiment: Antimalarial activity against chloroquine-sensitive Plasmodium falciparum NF54 after 24 hrs by hypoxanthine incorporation assay; type: functional, organism-based; details: NF54, 24 h
[36] = AUC (0 to infinity) in Sprague-Dawley rat at 21.7 mg/kg, po; type: ADME, organism-based; parameters: time infinity, dose 21.7 mg/kg, route oral; details: plasma
Rattus norvegicus [37] = experiment: Toxicity in Sprague-Dawley rat assessed as impaired coordination at 50 mg/kg, po administered as 4 doses measured post-third dose; type: organism-based; parameters: dose 50 mg/kg, route oral; details: in vivo
Rattus norvegicus [38] = experiment: Toxicity in Sprague-Dawley rat assessed as impaired coordination at 30 mg/kg, po administered as single dose; type: organism-based; parameters: dose 30 mg/kg, route oral; details: in vivo
[39] = Cmax in Sprague-Dawley rat at 21.7 mg/kg, po; type: ADME, organism-based; parameters: dose 21.7 mg/kg, route oral; details: in vivo
[40] = Oral bioavailability in Sprague-Dawley rat at 21.7 mg/kg; type: ADME, organism-based; details: in vivo
[41] = Tmax in Sprague-Dawley rat at 21.7 mg/kg, po; type: ADME, organism-based; parameters: dose 21.7 mg/kg, route oral; details: in vivo
[42] = Apparent terminal half life in Sprague-Dawley rat at 21.7 mg/kg, po; type: ADME, organism-based; parameters: dose 21.7 mg/kg, route oral; details: in vivo, read-out: betat1/2(app) (converted)
Plasmodium berghei [43] = experiment: Antimalarial activity against Plasmodium berghei ANKA expressing GFP infected in Sprague-Dawley rat assessed as host survival at 30 mg/kg, po administered as single dose measured 6 days post-infection; type: functional, organism-based; parameters: dose 30 mg/kg

Compound	AUC(0-inf) [1]	Activity (Plasmodium berghei [4])	Activity (Plasmodium berghei [6])	clearance [10]	Activity (Plasmodium berghei [12])	MSD (Plasmodium berghei [15])	Activity (Plasmodium berghei [16])	Activity (Plasmodium berghei [17])	half-life at 1 µM [18]	microsomal CLint at 1 µM [20]	MSD (Plasmodium berghei [21])	Activity (Plasmodium berghei [22])	MSD (Plasmodium berghei [23])	chromatographic logD [24]	MSD (Plasmodium berghei [27])	Activity (Plasmodium berghei [28])	solubility kinetic at 0.5 h [32]	fraction unbound [33]	IC50 (Plasmodium falciparum [34])	IC50 (Plasmodium falciparum [35])	other results
COc1ccc(-c2cc(-c3ccc(S(C)(=O)=O)cc3)cnc2N)cn1	13.2 µM·h	99.8%	inactive	16.7 mL/min/kg	Active	21 days	82%	>99.3%	> 1.65 h	< 28 µL/min/mg	3 days	<40%	8 days	2.2	>30 days	99%					clearance [2]: 18.3 mL/min/kg; half-life [3]: 6.5 h; Cmax [5]: 5.4 µM; Cmax [7]: 21 µM; bioavailability [8]: 83%; Tmax [9]: 0.25 h; bioavailability [11]: > 100%; AUC(0-inf) [13]: 115 µM·h; Tmax [14]: 1.75 h; ED50 (Plasmodium berghei [19]): 4.7 mg/kg; ED90 (Plasmodium berghei [19]): 17 mg/kg; MSD (Plasmodium berghei [25]): 7 days; half-life [26]: 8 h; Vd [29]: 4.3 L/kg; AUC(0-inf) [30]: 11.8 µM·h; half-life [31]: 6.7 h
Cc1ccc(-c2cc(-c3ccc(S(C)(=O)=O)cc3)cnc2N)cn1		99.8%	inactive		Active				> 5.83 h	< 5 µL/min/mg	3 days	<40%	8 days	1.8	>30 days	99.2%	50 µg/mL (≈ 147 µM)	0.256	29 nM	28 nM	
CS(=O)(=O)c1ccc(-c2cnc(N)c(-c3ccc(C(F)(F)F)cc3)c2)cc1	6.98 µM·h			29 mL/min/kg			98%		> 4.17 h	< 7 µL/min/mg			15 days	3.4		97.3%	< 1.6 µg/mL	0.038	20 nM	19 nM	AUC(0-inf) [36]: 8.27 µM·h; Activity (Rattus norvegicus [37]): Toxic; Activity (Rattus norvegicus [38]): Non-toxic; Cmax [39]: 1 µM; bioavailability [40]: 26%; Tmax [41]: 3.25 h; MSD (Plasmodium berghei [25]): 9 days; half-life [26]: 11.3 h; half-life [42]: 6 h; Vd [29]: 8 L/kg
CS(=O)(=O)c1ccc(-c2cnc(N)c(-c3ccc(C(N)=O)cc3)c2)cc1		66%				7 days		64%	> 5.83 h	< 5 µL/min/mg			3 days	1.5	7 days	<40%	25 µg/mL (≈ 68 µM)	0.216	30 nM	30 nM	Activity (Plasmodium berghei [43]): inactive
